Assay: Membrane penetration testing of piroxicam-containing cream, human skin membrane, test series (II)
Type: in vitro ADME
Conditions: 1% piroxicam cream, 34° C., no air flow
Description: In the test, the acceptor phase comprises 0.9 weight % sodium chloride solution. The flow rate of the acceptor phase is 0.3 ml/min. During the first test series (I), a cellophane membrane, during the second test series (II), a human skin membrane was used. Temperature of the cell was kept at 34° C. During both test series, the cell was exposed to natural sunlight. No air flow was applied. The membrane was allowed to stabilize for 60 minutes. After the stabilization period, 300 to 400 mg of test preparation measured by analytical precision are applied to the membrane homogeneously in 2-3 seconds. The flow of the acceptor phase is resumed and effluent fractions for periods of 30 minute each are collected. […] The high-performance liquid chromatographic analysis is carried out using external standard method in a reversed phase system. The separation is carried out using a Nucleosil C18 (250 mm×4.6 mm i.d.) column and a buffer-acetonitrile-methanol (1000:660:340, v/v/v) mobile phase. The separation is performed at the temperature of 40° C. Flow rate of the mobile phase is 1.0 ml/min. Detection is carried out by ultraviolet photodiode array detector in the wavelength range of 250 to 450 nm.

Cumulative amount of dissolved piroxicam, % Series (II) (fraction 1, 0-30 min): 0.00%
Cumulative amount of dissolved piroxicam, % Series (II) (fraction 2, 30-60 min): 0.00%
Cumulative amount of dissolved piroxicam, % Series (II) (fraction 3, 60-90 min): 0.00%
Cumulative amount of dissolved piroxicam, % Series (II) (fraction 4, 90-120 min): 0.00%
Cumulative amount of dissolved piroxicam, % Series (II) (fraction 5, 120-150 min): 0.01%
Cumulative amount of dissolved piroxicam, % Series (II) (fraction 6, 150-180 min): 0.02%
Cumulative amount of dissolved piroxicam, % Series (II) (fraction 7, 180-210 min): 0.02%
Cumulative amount of dissolved piroxicam, % Series (II) (fraction 8, 210-240 min): 0.03%
Cumulative amount of dissolved piroxicam, % Series (II) (fraction 9, 240-270 min): 0.04%
Cumulative amount of dissolved piroxicam, % Series (II) (fraction 10, 270-300 min): 0.05%
Cumulative amount of dissolved piroxicam, % Series (II) (fraction 11, 300-330 min): 0.05%
Cumulative amount of dissolved piroxicam, % Series (II) (fraction 12, 330-360 min): 0.06%
Compound: CN1C(C(=O)Nc2ccccn2)=C(O)c2ccccc2S1(=O)=O [piroxicam]
